Here are results for 14 molecules from patent US20180265515A1 (Genentech, Inc., priority 2015, published 2018).

The target of test [1] is T1, isolated recombinant JAK1 kinase domain (Homo sapiens, UniProt P23458).
T1 construct: The activity of the isolated recombinant JAK1 and JAK2 kinase domain was measured
Put plainly: JAK1 enzyme assay (Caliper LabChip, Ki). The settings on record: recombinant JAK1 kinase domain, 25 μM ATP. The class given is biochemical. The protocol: (§1) JAK Enzyme Assays were Carried Out as Follows:
(§2) The activity of the isolated recombinant JAK1 and JAK2 kinase domain was measured by monitoring phosphorylation of a peptide derived from JAK3 (Val-Ala-Leu-Val-Asp-Gly-Tyr-Phe-Arg-Leu-Thr-Thr, fluorescently labeled on the N-terminus with 5-carboxyfluorescein) using the Caliper LabChip® technology (Caliper Life Sciences, Hopkinton, Mass.). […] Reactions were incubated at 22° C. in 384-well polypropylene microtiter plates for 30 minutes and then stopped by addition of 25 μL of an EDTA containing solution (100 mM HEPES buffer (pH 7.2), 0.015% Brij-35, 150 mM EDTA), resulting in a final EDTA concentration of 50 mM. After termination of the kinase reaction, the proportion of phosphorylated product was determined as a fraction of total peptide substrate using the Caliper LabChip® 3000 according to the manufacturer's specifications. Ki values were then determined using the Morrison tight binding model (Morrison, J. F., Biochim. Biophys. Acta. 185:269-296 (1969); William, J. W. and Morrison, J. F., Meth. Enzymol., 63:437-467 (1979)) modified for ATP-competitive inhibition [Ki=Ki,app/(1+[ATP]/Km,app)].

Test [2] deals with T2, isolated recombinant JAK2 kinase domain (Homo sapiens, UniProt O60674).
T2 construct: The activity of the isolated recombinant JAK1 and JAK2 kinase domain was measured
T2 sequence (O60674 849-1124 limits assumed): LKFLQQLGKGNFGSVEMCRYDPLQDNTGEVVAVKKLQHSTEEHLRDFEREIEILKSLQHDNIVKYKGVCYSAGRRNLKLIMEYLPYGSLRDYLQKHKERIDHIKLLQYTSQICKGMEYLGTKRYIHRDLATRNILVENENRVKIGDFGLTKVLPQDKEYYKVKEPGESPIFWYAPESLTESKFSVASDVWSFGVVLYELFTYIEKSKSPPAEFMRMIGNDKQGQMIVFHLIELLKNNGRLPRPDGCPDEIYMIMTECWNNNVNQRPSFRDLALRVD
Put plainly: JAK2 enzyme assay (Caliper LabChip, Ki). The class given is biochemical. The settings on record: 25 μM ATP. The protocol:
as §1, §2

Test [3] concerns JAK1-dependent STAT6 phosphorylation downstream of IL-13 stimulation in BEAS-2B human bronchial epithelial cells. Put plainly: JAK1 pathway assay in BEAS-2B cells (IL-13 stimulated STAT6 phosphorylation, MSD). The class given is cell-based. The settings on record: read-out: P-STAT6 BEAS2B + IL13 IC50. On the procedure: JAK1 Pathway Assay in Cell Lines was Carried Out as Follows:
Inhibitor potency (EC50) was determined in cell-based assays designed to measure JAK1 dependent STAT phosphorylation. As noted above, inhibition of IL-4, IL-13, and IL-9 signaling by blocking the Jak/Stat signaling pathway can alleviate asthmatic symptoms in pre-clinical lung inflammation models (Mathew et al., 2001, J Exp Med 193(9): 1087-1096; Kudlacz et. al., 2008, Eur J. Pharmacol 582(1-3): 154-161).
In one assay approach, TF-1 human erythroleukemia cells obtained from the American Type Culture Collection (ATCC; Manassas, Va.) were used to measure JAK1-dependent STAT6 phosphorylation downstream of IL-13 stimulation. Prior to use in the assays, TF-1 cells were starved of GM-CSF overnight in OptiMEM medium (Life Technologies, Grand Island, N.Y.) supplemented with 0.5% charcoal/dextran stripped fetal bovine serum (FBS), 0.1 mM non-essential amino acids (NEAA), and 1 mM sodium pyruvate. The assays were run in 384-well plates in serum-free OptiMEM medium using 300,000 cells per well. In a second assay approach, BEAS-2B human bronchial epithelial cells obtained from ATCC were plated at 100,000 cells per well of a 96-well plate one day prior to the experiment. The BEAS-2B assay was run in complete growth medium (bronchial epithelial basal medium plus bulletkit; Lonza; Basel, Switzerland).
Test compounds were serially diluted 1:2 in DMSO and then diluted 1:50 in medium just before use. Diluted compounds were added to the cells, for a final DMSO concentration of 0.2%, and incubated for 30 min (for the TF-1 assay) or 1 hr (for the BEAS-2B assay) at 37° C. Then, cells were stimulated with human recombinant cytokine at their respective EC90 concentrations, as previously determined for each individual lot. Cells were stimulated with IL-13 (R&D Systems, Minneapolis, Minn.) for 15 min at 37° C. The TF-1 cell reactions were stopped by the direct addition of 10× lysis buffer (Cell Signaling Technologies, Danvers, Mass.), whereas the BEAS-2B cell incubations were halted by the removal of medium and addition of 1× lysis buffer. The resultant samples were frozen in the plates at −80° C. Compound mediated inhibition of STAT6 phosphorylation was measured in the cell lysates using MesoScale Discovery (MSD) technology (Gaithersburg, Md.). EC50 values were determined as the concentration of compound required for 50% inhibition of STAT phosphorylation relative to that measured for the DMSO control.

T1 sequence (P23458 875-1153 limits assumed): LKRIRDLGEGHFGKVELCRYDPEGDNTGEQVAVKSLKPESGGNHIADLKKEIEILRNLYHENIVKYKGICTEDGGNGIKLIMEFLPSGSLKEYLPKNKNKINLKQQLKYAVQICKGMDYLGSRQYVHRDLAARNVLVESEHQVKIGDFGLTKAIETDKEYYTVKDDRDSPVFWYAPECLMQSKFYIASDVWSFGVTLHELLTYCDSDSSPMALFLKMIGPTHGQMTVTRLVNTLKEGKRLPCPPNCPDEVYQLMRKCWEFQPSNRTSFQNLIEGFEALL

For `CSc1ccc(OC(F)F)c(-c2nn(CC(=O)N3CCC(N(C)CCCC#N)CC3)cc2NC(=O)c2cnn3cccnc23)c1` [Example 17, N-[1-[2-[4-[3-cyanopropyl(methyl)amino]-1-piperidyl]-2-oxo-ethyl]-3-[2-(difluoromethoxy)-5-methylsulfanyl-phenyl]pyrazol-4-yl]pyrazolo[1,5-a]pyrimidine-3-carboxamide], the Ki – broadly, a measure of affinity in units of concentration, obtained from inhibition or displacement – in test [1] was found to be 0.27 nM; in test [2], 0.53 nM. Also, the IC50 (as a rule, the concentration that inhibits the measured activity by half) in test [3] is 5 nM.
For `CSc1ccc(OC(F)F)c(-c2nn(CC(=O)N3CCC(N4CCC(C#N)CC4)CC3)cc2NC(=O)c2cnn3cccnc23)c1` [Example 18, N-[1-[2-[4-(4-cyano-1-piperidyl)-1-piperidyl]-2-oxo-ethyl]-3-[2-(difluoromethoxy)-5-methylsulfanyl-phenyl]pyrazol-4-yl]pyrazolo[1,5-a]pyrimidine-3-carboxamide] the same measures were 0.24 nM, 0.37 nM and 6 nM.
For `CSc1ccc(OC(F)F)c(-c2nn(CC(=O)N3CCC(NCC(C)(F)F)CC3)cc2NC(=O)c2cnn3cccnc23)c1` [Example 19, N-[3-[2-(difluoromethoxy)-5-methylsulfanyl-phenyl]-1-[2-[4-(2,2-difluoropropylamino)-1-piperidyl]-2-oxo-ethyl]pyrazol-4-yl]pyrazolo[1,5-a]pyrimidine-3-carboxamide] the same measures were 0.24 nM, 0.39 nM and 7.4 nM.
For `CSc1ccc(OC(F)F)c(-c2nn(CC(=O)N3CCC(NCC(C)(C)C#N)CC3)cc2NC(=O)c2cnn3cccnc23)c1` [Example 20, N-[1-[2-[4-[(2-cyano-2-methyl-propyl)amino]-1-piperidyl]-2-oxo-ethyl]-3-[2-(difluoromethoxy)-5-methylsulfanyl-phenyl]pyrazol-4-yl]pyrazolo[1,5-a]pyrimidine-3-carboxamide] the same measures were 0.2 nM, 0.33 nM and 11 nM.
As for `CSc1ccc(OC(F)F)c(-c2nn(CC(=O)N3CCN(CCCC#N)CC3)cc2NC(=O)c2cnn3cccnc23)c1` [Example 21, N-[1-[2-[4-(3-cyanopropyl)piperazin-1-yl]-2-oxo-ethyl]-3-[2-(difluoromethoxy)-5-methylsulfanyl-phenyl]pyrazol-4-yl]pyrazolo[1,5-a]pyrimidine-3-carboxamide], the Ki is 0.27 nM in test [1] and 0.33 nM in test [2]. Moreover, in test [3], the IC50 was found to be 9.1 nM.
Regarding `CSc1ccc(OC(F)F)c(-c2nn(CC(=O)N3CCC(N(C)CC(=O)N4CCC4)CC3)cc2NC(=O)c2cnn3cccnc23)c1` [Example 22, N-[1-[2-[4-[[2-(azetidin-1-yl)-2-oxo-ethyl]-methyl-amino]-1-piperidyl]-2-oxo-ethyl]-3-[2-(difluoromethoxy)-5-methylsulfanyl-phenyl]pyrazol-4-yl]pyrazolo[1,5-a]pyrimidine-3-carboxamide], the Ki came out at 0.32 nM in test [1] and 0.62 nM in test [2]. Moreover, the IC50 in test [3] was found to be 130 nM.
Taken in the same sequence, the figures for `CSc1ccc(OC(F)F)c(-c2nn(CC(=O)N3CCC(N4CCN(C)C(=O)C4)CC3)cc2NC(=O)c2cnn3cccnc23)c1` [Example 23, N-[3-[2-(difluoromethoxy)-5-methylsulfanyl-phenyl]-1-[2-[4-(4-methyl-3-oxo-piperazin-1-yl)-1-piperidyl]-2-oxo-ethyl]pyrazol-4-yl]pyrazolo[1,5-a]pyrimidine-3-carboxamide] were 0.24 nM, 0.31 nM and 61 nM.
Taken in the same sequence, the figures for `CSc1ccc(OC(F)F)c(-c2nn(CC(=O)N3CCC(N(C)CC(C)(F)F)CC3)cc2NC(=O)c2cnn3cccnc23)c1` [Example 24, N-[3-[2-(difluoromethoxy)-5-methylsulfanyl-phenyl]-1-[2-[4-[2,2-difluoropropyl(methyl)amino]-1-piperidyl]-2-oxo-ethyl]pyrazol-4-yl]pyrazolo[1,5-a]pyrimidine-3-carboxamide] were 0.22 nM, 0.32 nM and 4.9 nM.
Consider `CSc1ccc(OC(F)F)c(-c2nn(CC(=O)N3CCC(CN4CCN(CC(=O)N(C)C)CC4)CC3)cc2NC(=O)c2cnn3cccnc23)c1` [Example 25, N-(3-(2-(difluoromethoxy)-5-(methylthio)phenyl)-1-(2-(4-((4-(2-(dimethylamino)-2-oxoethyl)piperazin-1-yl)methyl)piperidin-1-yl)-2-oxoethyl)-1H-pyrazol-4-yl)pyrazolo[1,5-a]pyrimidine-3-carboxamide], for which the values for the Ki in test [1] and in test [2] were 0.31 nM and 0.51 nM, respectively. Further, in test [3], the IC50 came to 18 nM.
Turning to `CSc1ccc(OC(F)F)c(-c2nn(CC(=O)N3CCC(N(C)CC(C)(C)C#N)CC3)cc2NC(=O)c2cnn3cccnc23)c1` [Example 26, N-[1-[2-[4-[(2-cyano-2-methyl-propyl)-methyl-amino]-1-piperidyl]-2-oxo-ethyl]-3-[2-(difluoromethoxy)-5-methylsulfanyl-phenyl]pyrazol-4-yl]pyrazolo[1,5-a]pyrimidine-3-carboxamide], the Ki was 0.24 nM in test [1] and 0.39 nM in test [2]. In test [3], the IC50 came to 12 nM.
Taken in the same sequence, the figures for `CSc1ccc(OC(F)F)c(-c2nn(CC(=O)N3CCC(N4CCSCC4)CC3)cc2NC(=O)c2cnn3cccnc23)c1` [Example 27, N-[3-[2-(difluoromethoxy)-5-methylsulfanyl-phenyl]-1-[2-oxo-2-(4-thiomorpholino-1-piperidyl)ethyl]pyrazol-4-yl]pyrazolo[1,5-a]pyrimidine-3-carboxamide] were 0.23 nM, 0.32 nM and 5.1 nM.
Taken in the same sequence, the figures for `CNCCn1cc(NC(=O)c2cnn3cccnc23)c(-c2cc(SC)ccc2OC(F)F)n1` [Example 28, N-[3-[2-(difluoromethoxy)-5-methylsulfanyl-phenyl]-1-[2-(methylamino)ethyl]pyrazol-4-yl]pyrazolo[1,5-a]pyrimidine-3-carboxamide] were 0.22 nM, 0.26 nM and 3 nM.
For `CSc1ccc(OC(F)F)c(-c2nn(CC(=O)N3CCC(N(C)CC(C)C#N)CC3)cc2NC(=O)c2cnn3cccnc23)c1` (stereo not drawn) [Example 29, N-[1-[2-[4-[2-cyanopropyl(methyl)amino]-1-piperidyl]-2-oxo-ethyl]-3-[2-(difluoromethoxy)-5-methylsulfanyl-phenyl]pyrazol-4-yl]pyrazolo[1,5-a]pyrimidine-3-carboxamide] the same measures were 0.26 nM, 0.37 nM and 9 nM.
Turning to `CSc1ccc(OC(F)F)c(-c2nn(CC(=O)N3CCC(NCC(C)C#N)CC3)cc2NC(=O)c2cnn3cccnc23)c1` (stereo not drawn) [Example 30, N-[1-[2-[4-(2-cyanopropylamino)-1-piperidyl]-2-oxo-ethyl]-3-[2-(difluoromethoxy)-5-methylsulfanyl-phenyl]pyrazol-4-yl]pyrazolo[1,5-a]pyrimidine-3-carboxamide], the Ki amounted to 0.29 nM in test [1] and 0.38 nM in test [2]. Besides, the IC50 in test [3] came to 8.7 nM.
